Where two headings read alike, the source gives them in different places.
What was measured:
[1] = biological target: wild-type un-phosphorylated FGFR3 (Homo sapiens, UniProt P22607); test: FGFR Enzymatic Assay (FRET peptide phosphorylation), FGFR3
[2] = biological target: wild-type un-phosphorylated FGFR1 (Homo sapiens, UniProt P11362); test: FGFR Enzymatic Assay (FRET peptide phosphorylation), FGFR1; settings: FGFR1, wild-type un-phosphorylated FGFR1; pre-incubated for 4 hours
Sequence of wild-type un-phosphorylated FGFR1 (P11362 22-822): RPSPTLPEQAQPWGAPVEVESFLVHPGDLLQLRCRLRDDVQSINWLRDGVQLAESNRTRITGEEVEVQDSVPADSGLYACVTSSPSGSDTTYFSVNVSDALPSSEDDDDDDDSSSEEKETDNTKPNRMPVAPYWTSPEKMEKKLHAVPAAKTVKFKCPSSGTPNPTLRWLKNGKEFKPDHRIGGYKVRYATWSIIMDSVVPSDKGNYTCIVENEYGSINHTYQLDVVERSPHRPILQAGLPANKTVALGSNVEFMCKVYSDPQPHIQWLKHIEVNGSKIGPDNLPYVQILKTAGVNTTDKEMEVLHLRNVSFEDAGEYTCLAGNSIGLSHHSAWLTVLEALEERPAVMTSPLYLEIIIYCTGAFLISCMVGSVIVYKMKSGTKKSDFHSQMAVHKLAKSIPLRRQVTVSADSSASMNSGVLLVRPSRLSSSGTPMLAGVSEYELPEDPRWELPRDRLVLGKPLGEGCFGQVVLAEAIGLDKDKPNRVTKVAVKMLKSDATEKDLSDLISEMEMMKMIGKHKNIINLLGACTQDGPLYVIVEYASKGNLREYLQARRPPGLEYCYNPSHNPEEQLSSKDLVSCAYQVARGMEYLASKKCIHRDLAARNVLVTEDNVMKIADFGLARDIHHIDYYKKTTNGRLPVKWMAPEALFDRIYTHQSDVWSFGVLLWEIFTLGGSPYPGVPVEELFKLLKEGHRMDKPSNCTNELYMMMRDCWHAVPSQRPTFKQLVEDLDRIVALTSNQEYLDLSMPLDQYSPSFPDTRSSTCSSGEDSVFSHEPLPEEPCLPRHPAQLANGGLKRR

Sequence of wild-type un-phosphorylated FGFR3 (P22607 23-806): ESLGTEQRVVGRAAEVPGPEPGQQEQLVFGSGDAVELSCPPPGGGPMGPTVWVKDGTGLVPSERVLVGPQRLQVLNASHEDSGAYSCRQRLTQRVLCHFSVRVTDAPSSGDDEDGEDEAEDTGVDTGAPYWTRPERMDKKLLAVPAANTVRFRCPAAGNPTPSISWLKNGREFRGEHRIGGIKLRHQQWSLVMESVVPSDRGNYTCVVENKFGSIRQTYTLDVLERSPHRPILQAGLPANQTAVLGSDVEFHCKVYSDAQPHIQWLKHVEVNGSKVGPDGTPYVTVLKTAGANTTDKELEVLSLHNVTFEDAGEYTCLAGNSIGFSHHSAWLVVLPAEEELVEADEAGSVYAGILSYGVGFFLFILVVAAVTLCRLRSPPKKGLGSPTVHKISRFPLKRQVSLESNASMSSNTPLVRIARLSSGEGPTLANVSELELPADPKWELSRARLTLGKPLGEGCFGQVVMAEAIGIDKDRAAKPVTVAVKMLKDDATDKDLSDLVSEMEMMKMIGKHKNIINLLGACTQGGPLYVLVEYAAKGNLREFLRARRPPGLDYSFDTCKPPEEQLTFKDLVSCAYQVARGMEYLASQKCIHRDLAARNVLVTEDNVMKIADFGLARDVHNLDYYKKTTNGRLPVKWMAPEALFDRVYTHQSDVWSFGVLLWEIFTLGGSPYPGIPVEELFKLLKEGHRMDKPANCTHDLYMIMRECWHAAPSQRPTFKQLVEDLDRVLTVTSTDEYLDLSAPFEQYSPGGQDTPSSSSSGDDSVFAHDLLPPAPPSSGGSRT

SMILES | IC50 [1] [nM] | IC50 [2] [nM] | IC50 ([1]; read-out: FGFR3, wild-type un-phosphorylated FGFR3, pre-incubated for 4 hours) [nM]
COc1cc2[nH]nc(-c3cnn(C)c3)c2nc1-c1cccc2c1CCC2O (single isomer, unassigned) [Example 7, 4-(6-Methoxy-3-(1-methyl-1H-pyrazol-4-yl)-1H-pyrazolo[4,3-b]pyridin-5-yl)-2,3-dihydro-1H-inden-1-ol] | < 6 | 40 to 100 | –
COc1cc2[nH]nc(-c3cnn(C)c3)c2nc1-c1cccc2c1CCC2O (single isomer, unassigned) [Example 8, 4-(6-Methoxy-3-(1-methyl-1H-pyrazol-4-yl)-1H-pyrazolo[4,3-b]pyridin-5-yl)-2,3-dihydro-1H-inden-1-ol] | – | > 100 | < 6
COc1cc2[nH]nc(-c3cnn(C)c3)c2nc1-c1cccc2c1CCC2C#N (stereo not drawn) [Example 9, 4-(6-Methoxy-3-(1-methyl-1H-pyrazol-4-yl)-1H-pyrazolo[4,3-b]pyridin-5-yl)-2,3-dihydro-1H-indene-1-carbonitrile] | < 6 | 40 to 100 | –
COc1cc2[nH]nc(-c3cnn(C)c3)c2nc1-c1cccc2c1C[C@H](F)[C@@H]2O [Example 13, 2-Fluoro-4-(6-methoxy-3-(1-methyl-1H-pyrazol-4-yl)-1H-pyrazolo[4,3-b]pyridin-5-yl)-2,3-dihydro-1H-inden-1-ol] | < 6 | > 100 | –
CCN1CCC(n2cc(-c3n[nH]c4cc(OC)c(-c5cccc6c5CCC6)nc34)cn2)C1 (stereo not drawn) [Example 15, 5-(2,3-Dihydro-1H-inden-4-yl)-3-(1-(1-ethylpyrrolidin-3-yl)-1H-pyrazol-4-yl)-6-methoxy-1H-pyrazolo[4,3-b]pyridine] | < 6 | 40 to 100 | –
Cn1cc(-c2n[nH]c3cc(C(F)F)c(-c4cccc5c4CCC5)nc23)cn1 [Example 35, 6-(Difluoromethyl)-5-(2,3-dihydro-1H-inden-4-yl)-3-(1-methyl-1H-pyrazol-4-yl)-1H-pyrazolo[4,3-b]pyridine] | < 6 | 40 to 100 | –
COc1cc2[nH]nc(-c3ccc(N4CCN(C)[C@H](C)C4)nc3)c2nc1-c1cccc(C)c1C [Example 47, (R)-5-(2,3-Dimethylphenyl)-3-(6-(3,4-dimethylpiperazin-1-yl)pyridin-3-yl)-6-methoxy-1H-pyrazolo[4,3-b]pyridine] | < 6 | 40 to 100 | –
COc1cc2[nH]nc(-c3ccc(N4C[C@@H]5C[C@H]4CN5C)nc3)c2nc1-c1cccc(C)c1C [Example 49, 5-(2,3-Dimethylphenyl)-6-methoxy-3-(6-((1S,4S)-5-methyl-2,5-diazabicyclo[2.2.1]heptan-2-yl)pyridin-3-yl)-1H-pyrazolo[4,3-b]pyridine] | < 6 | 40 to 100 | –

The remaining lines, values ahead:

IC50 [1] [nM] | IC50 [2] [nM] | IC50 ([1]; read-out: FGFR3, wild-type un-phosphorylated FGFR3, pre-incubated for 4 hours) [nM] | SMILES
< 6 | 40 to 100 | – | COc1cc2[nH]nc(-c3cnn(C4CCNC4)c3)c2nc1-c1cccc2c1CCC2 (stereo not drawn) [Example 14, 5-(2,3-Dihydro-1H-inden-4-yl)-6-methoxy-3-(1-(pyrrolidin-3-yl)-1H-pyrazol-4-yl)-1H-pyrazolo[4,3-b]pyridine]
< 6 | > 100 | – | CCOc1cc2[nH]nc(-c3cnn(C)c3)c2nc1-c1cccc2c1CCC2 [Example 26, 5-(2,3-Dihydro-1H-inden-4-yl)-6-ethoxy-3-(1-methyl-1H-pyrazol-4-yl)-1H-pyrazolo[4,3-b]pyridine]
< 6 | > 100 | – | COc1cc2[nH]nc(-c3cnn(-c4ccncc4)c3)c2nc1-c1cccc2c1CCC2 [Example 32, 5-(2,3-Dihydro-1H-inden-4-yl)-6-methoxy-3-(1-(pyridin-4-yl)-1H-pyrazol-4-yl)-1H-pyrazolo[4,3-b]pyridine]
< 6 | > 100 | – | CNc1cc2[nH]nc(-c3cnn(C)c3)c2nc1-c1cccc2c1CCC2 [Example 37, 5-(2,3-Dihydro-1H-inden-4-yl)-N-methyl-3-(1-methyl-1H-pyrazol-4-yl)-1H-pyrazolo[4,3-b]pyridin-6-amine]
